This is an account of results in patent publication US20230026696A1, “TRPV4 RECEPTOR LIGANDS” (UNIVERSITY OF UTAH RESEARCH FOUNDATION, priority 2019, published 2023).

For orientation: IC50 means the midpoint of a concentration-inhibition curve. A higher IC50 goes with lower potency.

Structures are written as SMILES.

For this assay, the target named is T1, human TRPV4 (Homo sapiens, UniProt Q9HBA0).
T1 construct: expressed in transfected cells
T1 sequence (Q9HBA0 whole entry): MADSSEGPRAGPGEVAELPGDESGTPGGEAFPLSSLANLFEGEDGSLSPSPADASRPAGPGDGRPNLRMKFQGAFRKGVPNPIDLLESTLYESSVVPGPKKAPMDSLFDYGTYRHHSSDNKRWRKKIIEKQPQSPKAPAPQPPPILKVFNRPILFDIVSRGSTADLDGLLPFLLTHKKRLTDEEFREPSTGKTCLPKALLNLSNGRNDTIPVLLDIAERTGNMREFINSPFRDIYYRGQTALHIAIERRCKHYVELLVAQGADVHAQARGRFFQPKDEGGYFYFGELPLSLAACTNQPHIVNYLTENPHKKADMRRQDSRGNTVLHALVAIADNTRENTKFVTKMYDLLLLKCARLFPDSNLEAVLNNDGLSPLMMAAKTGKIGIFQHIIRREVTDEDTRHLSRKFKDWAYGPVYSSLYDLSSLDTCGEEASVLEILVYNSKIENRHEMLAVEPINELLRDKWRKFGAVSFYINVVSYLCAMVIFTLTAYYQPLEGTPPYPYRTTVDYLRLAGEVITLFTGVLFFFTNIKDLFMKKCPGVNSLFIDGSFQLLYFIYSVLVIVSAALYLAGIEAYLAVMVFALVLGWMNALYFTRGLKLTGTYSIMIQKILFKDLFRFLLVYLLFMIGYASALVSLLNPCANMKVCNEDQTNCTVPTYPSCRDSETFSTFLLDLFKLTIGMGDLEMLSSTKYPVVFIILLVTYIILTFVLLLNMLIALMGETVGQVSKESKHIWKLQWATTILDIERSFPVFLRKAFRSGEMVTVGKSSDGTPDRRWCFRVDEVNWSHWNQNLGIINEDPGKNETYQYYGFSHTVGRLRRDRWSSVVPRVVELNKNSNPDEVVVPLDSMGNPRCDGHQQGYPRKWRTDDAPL
Briefly: Fluorometric cell-based Ca2+ flux assay, HEK-293 cells stably overexpressing human TRPV4. The note with it: HEK-293 stably overexpressing human TRPV4; agonist GSK1016790A 30 nM. The procedure, abridged: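 HEK-293 cells stably overexpressing human TRPV4, Fluo 4-loaded, pre-incubated 30 min at 37° C with compound, then stimulated with 30 nM GSK1016790A (final). Max ΔF/s over 1 min, media-corrected, expressed relative to no-antagonist control; IC50 from ≥8 concentrations, ≥3 replicates.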
With `N#Cc1ccc(OCC2(CO)CN(S(=O)(=O)c3ccc(Cl)cc3C#N)C2)cc1F` [Compound 81, 4-((1-((4-Chloro-2-cyanophenyl)sulfonyl)-3-(hydroxymethyl)azetidin-3-yl)methoxy)-2-fluorobenzonitrile], the IC50 was determined as 5 nM.
The value for `Cc1ccc(S(=O)(=O)N2CC(CO)(COc3ccc(C#N)c(F)c3)C2)c(Cl)c1` [Compound 82, 4-((1-((2-Chloro-4-methylphenyl)sulfonyl)-3-(hydroxymethyl)azetidin-3-yl)methoxy)-2-fluorobenzonitrile] was over 27 nM; that for `COc1ccc(S(=O)(=O)N2CC(CO)(COc3ccc(C#N)c(F)c3)C2)c(Cl)c1` [Compound 83, 4-((1-((2-chloro-4-methoxyphenyl)sulfonyl)-3-(hydroxymethyl)azetidin-3-yl)methoxy)-2-fluorobenzonitrile] was over 64 nM.
To `N#Cc1ccc(OCC2(CO)CN(S(=O)(=O)c3ccc(Cl)cc3)C2)cc1F` [Compound 84, 4-((1-((4-Chlorophenyl)sulfonyl)-3-(hydroxymethyl)azetidin-3-yl)methoxy)-2-fluorobenzonitrile] belongs over 302 nM.
For the compound `N#Cc1ccc(OCC2(CO)CN(S(=O)(=O)c3ccccc3C#N)C2)cc1F` [Compound 85, 4-((1-((2-Cyanophenyl)sulfonyl)-3-(hydroxymethyl)azetidin-3-yl)methoxy)-2-fluorobenzonitrile], the IC50 came to 4.9 nM.
To `N#Cc1ccc(OCC2(CO)CN(S(=O)(=O)c3ccc(C(F)(F)F)cc3C#N)C2)cc1F` [Compound 86, 4-((1-((2-Cyano-4-(trifluoromethyl)phenyl)sulfonyl)-3-(hydroxymethyl)azetidin-3-yl)methoxy)-2-fluorobenzonitrile] belongs 22.3 nM; to `O=S(=O)(c1ccc(Cl)cc1Cl)N1CC(CO)(COc2ccc(F)c(F)c2)C1` [Compound 87, (1-((2,4-Dichlorophenyl)sulfonyl)-3-((3,4-difluorophenoxy)methyl)azetidin-3-yl)methanol], 1000 to 3000 nM.
To `N#Cc1ccc(OCC2(CO)CN(S(=O)(=O)c3ccc(Cl)cc3Cl)C2)c(Cl)c1` [Compound 88, 3-Chloro-4-((1-((2,4-dichlorophenyl)sulfonyl)-3-(hydroxymethyl)azetidin-3-yl)methoxy)benzonitrile] belongs 500 nM; to `N#Cc1cccc(OCC2(CO)CN(S(=O)(=O)c3ccc(Cl)cc3Cl)C2)c1` [Compound 89, 3-((1-((2,4-Dichlorophenyl)sulfonyl)-3-(hydroxymethyl)azetidin-3-yl)methoxy)benzonitrile], 1000 to 3000 nM; to `COC(=O)c1ccc(OCC2(CO)CN(S(=O)(=O)c3ccc(Cl)cc3Cl)C2)cc1` [Compound 90, Methyl 4-((1-((2,4-dichlorophenyl)sulfonyl)-3-(hydroxymethyl)azetidin-3-yl)methoxy)benzoate], about 5000 nM.
The value for `O=S(=O)(c1ccc(Cl)cc1Cl)N1CC(CO)(COc2ccncc2)C1` [Compound 91, (1-((2,4-Dichlorophenyl)sulfonyl)-3-((pyridin-4-yloxy)methyl)azetidin-3-yl)methanol] was about 5000 nM; that for `Cc1ccc(OCC2(CO)CN(S(=O)(=O)c3ccc(Cl)cc3Cl)C2)cc1` [Compound 92, (1-((2,4-Dichlorophenyl)sulfonyl)-3-((p-tolyloxy)methyl)azetidin-3-yl)methanol] was about 5000 nM.
In turn, `NC(=O)c1ccc(OCC2(CO)CN(S(=O)(=O)c3ccc(Cl)cc3Cl)C2)cc1` [Compound 93, 4-((1-((2,4-Dichlorophenyl)sulfonyl)-3-(hydroxymethyl)azetidin-3-yl)methoxy)benzamide] had a half-maximal inhibitory concentration (IC50) of about 5000 nM.
To `O=S(=O)(c1ccc(Cl)cc1Cl)N1CC(CO)(COc2ccnc(Cl)c2)C1` [Compound 94, (3-(((2-Chloropyridin-4-yl)oxy)methyl)-1-((2,4-dichlorophenyl)sulfonyl)azetidin-3-yl)methanol] belongs about 3000 nM; to `Cc1cc(OCC2(CO)CN(S(=O)(=O)c3ccc(Cl)cc3Cl)C2)ccn1` [Compound 95, (1-((2,4-Dichlorophenyl)sulfonyl)-3-(((2-methylpyridin-4-yl)oxy)methyl)azetidin-3-yl)methanol], about 3000 nM; to `O=S(=O)(c1ccc(Cl)cc1Cl)N1CC(CO)(COc2cccnc2)C1` [Compound 97, (1-((2,4-Dichlorophenyl)sulfonyl)-3-((pyridin-3-yloxy)methyl)azetidin-3-yl)methanol], about 5000 nM.
The value for `COc1cc(C#N)ccc1OCC1(CO)CN(S(=O)(=O)c2ccc(Cl)cc2Cl)C1` [Compound 98, 4-((1-((2,4-Dichlorophenyl)sulfonyl)-3-(hydroxymethyl)azetidin-3-yl)methoxy)-3-methoxybenzonitrile] was 67.2 nM; that for `CCOc1cc(OCC2(COC(=O)c3ccc(Br)cc3)CN(S(=O)(=O)c3ccc(Cl)cc3Cl)C2)ccc1C#N` [Compound 99, (3-((4-Cyano-3-ethoxyphenoxy)methyl)-1-((2,4-dichlorophenyl)sulfonyl)azetidin-3-yl)methyl 4-bromobenzoate] was over 1000 nM.
To `CCOc1cc(OCC2(CO)CN(S(=O)(=O)c3ccc(Cl)cc3Cl)C2)ccc1C#N` [Compound 100, 4-((1-((2,4-Dichlorophenyl)sulfonyl)-3-(hydroxymethyl)azetidin-3-yl)methoxy)-2-ethoxybenzonitrile] belongs over 1000 nM; to `N#Cc1ccc(NCC2(CO)CN(S(=O)(=O)c3ccc(Cl)cc3Cl)C2)cc1F` [Compound 101, 4-(((1-((2,4-dichlorophenyl)sulfonyl)-3-(hydroxymethyl)azetidin-3-yl)methyl)amino)-2-fluorobenzonitrile], 136 nM; to `COc1ccc(S(=O)(=O)N2CC(CO)(COc3ccc(C#N)c(F)c3)C2)c(Br)c1` [Compound 102, 4-((1-((2-Bromo-4-methoxyphenyl)sulfonyl)-3-(hydroxymethyl)azetidin-3-yl)methoxy)-2-fluorobenzonitrile], 231 nM.
In the case of `Cc1ccc(S(=O)(=O)N2CC(CO)(COc3ccc(C#N)c(F)c3)C2)c(C#N)c1` [Compound 103, 4-((1-((2-Cyano-4-methylphenyl)sulfonyl)-3-(hydroxymethyl)azetidin-3-yl)methoxy)-2-fluorobenzonitrile], the IC50 worked out at 14.7 nM.
The value for `N#Cc1ccc(OCC2(CO)CN(S(=O)(=O)c3ccc(F)cc3C#N)C2)cc1F` [Compound 104, 4-((1-((2-Cyano-4-fluorophenyl)sulfonyl)-3-(hydroxymethyl)azetidin-3-yl)methoxy)-2-fluorobenzonitrile] was 29.3 nM; that for `N#Cc1ccc(OCC2(CO)CN(S(=O)(=O)c3ccc(OC(F)(F)F)cc3Br)C2)cc1F` [Compound 105, 4-((1-((2-Bromo-4-(trifluoromethoxy)phenyl)sulfonyl)-3-(hydroxymethyl)azetidin-3-yl)methoxy)-2-fluorobenzonitrile] was 1200 nM; that for `COc1ccc(S(=O)(=O)N2CC(CO)(COc3ccc(C#N)c(F)c3)C2)c(C#N)c1` [Compound 106, 4-((1-((2-Cyano-4-methoxyphenyl)sulfonyl)-3-(hydroxymethyl)azetidin-3-yl)methoxy)-2-fluorobenzonitrile] was 145 nM.
To `N#Cc1ccc(OCC2(CO)CN(S(=O)(=O)c3ccc(OC(F)(F)F)cc3C#N)C2)cc1F` [Compound 107, 4-((1-((2-Cyano-4-trifluoromethoxyphenyl)sulfonyl)-3-(hydroxymethyl)azetidin-3-yl)methoxy)-2-fluorobenzonitrile] belongs 80 nM; to `COc1cc(C#N)c(F)cc1OCC1(CO)CN(S(=O)(=O)c2ccc(Cl)cc2Cl)C1` [Compound 108, 4-((1-((2,4-Dichlorophenyl)sulfonyl)-3-(hydroxymethyl)azetidin-3-yl)methoxy)-2-fluoro-5-methoxybenzonitrile], 528 nM.
`COc1cc(C#N)c(F)cc1OCC1(CO)CN(S(=O)(=O)c2ccccc2C#N)C1` [Compound 109, 4-((1-((2-Cyanophenyl)sulfonyl)-3-(hydroxymethyl)azetidin-3-yl)methoxy)-2-fluoro-5-methoxybenzonitrile]: the IC50 stood at 940 nM.
The value for `COc1cc(C#N)c(F)cc1OCC1(CO)CN(S(=O)(=O)c2ccc(C)cc2C#N)C1` [Compound 110, 4-((1-((2-Cyano-4-methylphenyl)sulfonyl)-3-(hydroxymethyl)azetidin-3-yl)methoxy)-2-fluoro-5-methoxybenzonitrile] was 241 nM; that for `N#Cc1ccc(OCC2(CNC3COC3)CN(S(=O)(=O)c3ccccc3C#N)C2)cc1F` [Compound 111, 4-((1-((2-Cyanophenyl)sulfonyl)-3-((oxetan-3-ylamino)methyl)azetidin-3-yl)methoxy)-2-fluorobenzonitrile] was 47.6 nM.
`N#Cc1ccc(OCC2(CN[C@H]3CC[C@H](O)CC3)CN(S(=O)(=O)c3ccccc3C#N)C2)cc1F` [Compound 112, 4-((1-((2-Cyanophenyl)sulfonyl)-3-(((trans-4-hydroxycyclohexyl)amino)methyl)azetidin-3-yl)methoxy)-2-fluorobenzonitrile] returned an IC50 of 0.29 nM.
To `N#Cc1ccc(OCC2(CN[C@H]3C[C@H](O)C3)CN(S(=O)(=O)c3ccccc3C#N)C2)cc1F` [Compound 113, 4-((1-((2-Cyanophenyl)sulfonyl)-3-(((trans-3-hydroxycyclobutyl)amino)methyl)azetidin-3-yl)methoxy)-2-fluorobenzonitrile] belongs 0.79 nM.
The value for `CCOC(=O)CCNCC1(COc2ccc(C#N)c(F)c2)CN(S(=O)(=O)c2ccccc2C#N)C1` [Compound 114, Ethyl 3-(((3-((4-cyano-3-fluorophenoxy)methyl)-1-((2-cyanophenyl)sulfonyl)azetidin-3-yl)methyl)amino)propanoate] was 6.45 nM.
The value for `N#Cc1ccc(OCC2(CNCC(O)CO)CN(S(=O)(=O)c3ccccc3C#N)C2)cc1F` (stereo not shown) [Compound 115, 4-((1-((2-Cyanophenyl)sulfonyl)-3-(((2,3-dihydroxypropyl)amino)methyl)azetidin-3-yl)methoxy)-2-fluorobenzonitrile] was 1.98 nM.
